Source: patent US20240190890A1, “MK2 INHIBITORS AND USES THEREOF” (Bristol-Myers Squibb Company, priority 2022, published 2024)

Target: p38a activated, mitogen-activated protein kinase-activated protein kinase 2 (MAPKAP-K2 or MK2) enzyme (Homo sapiens (Human), UniProt P49137)
Experiment: MK2 Omnia continuous-read kinase assay for compound potency
Type: biochemical
Conditions: [MK-2]=0.4 nM, [ATP]=10 μM, [ST3-Sox]=10 μM; room temperature
How it was run: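 Continuous Sox-peptide fluorescence read (ex360/em485) every 71 s over 2 h at room temperature. Reactions: 10 μM each of ATP (at apparent Km) and S/T3-Sox, 0.4 nM p38a-activated MK2, pH 7.5 Tris/MgCl2 buffer. Initial rates yield % inhibition and IC50; single-exponential kobs values yield apparent kinact/KI.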

Sequence of p38a activated, mitogen-activated protein kinase-activated protein kinase 2 (MAPKAP-K2 or MK2) enzyme (P49137 whole entry): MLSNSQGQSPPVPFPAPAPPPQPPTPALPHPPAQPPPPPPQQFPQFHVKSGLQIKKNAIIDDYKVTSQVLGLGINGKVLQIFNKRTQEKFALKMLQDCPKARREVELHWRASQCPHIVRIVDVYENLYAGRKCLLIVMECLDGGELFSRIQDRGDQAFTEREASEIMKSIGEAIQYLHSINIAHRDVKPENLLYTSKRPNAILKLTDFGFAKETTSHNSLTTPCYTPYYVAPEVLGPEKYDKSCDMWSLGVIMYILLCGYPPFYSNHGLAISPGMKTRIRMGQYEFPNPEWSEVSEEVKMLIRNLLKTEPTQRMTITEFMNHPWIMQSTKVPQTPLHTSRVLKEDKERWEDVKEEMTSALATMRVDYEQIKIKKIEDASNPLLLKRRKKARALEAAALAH

Structure (SMILES)	IC50 [nM]
C#Cc1cc(-c2ccc3c(ccc4sc5c(c43)NC[C@@H](C)NC5=O)n2)cc(C)n1 [Example I-112, (R)-3-(2-ethynyl-6-methylpyridin-4-yl)-10-methyl-9,10,11,12-tetrahydro-8H-[1,4]diazepino[5′,6′:4,5]thieno[3,2-f]quinolin-8-one]	152
C[C@@H]1CNc2c(sc3ccc4nc(-c5nc(Cl)c(C(F)(F)F)cc5F)ccc4c23)C(=O)N1 [Example I-274, (R)-3-(6-chloro-3-fluoro-5-(trifluoromethyl)pyridin-2-yl)-10-methyl-9,10,11,12-tetrahydro-8H-[1,4]diazepino[5′,6′:4,5]thieno[3,2-f]quinolin-8-one]	752
C[C@@H]1CNc2c(sc3ccc4nc(-c5nc(Cl)ncc5COC5(C)COC5)ccc4c23)C(=O)N1 [Example I-28, (R)-3-(2-chloro-5-(((3-methyloxetan-3-yl)oxy)methyl)pyrimidin-4-yl)-10-methyl-9,10,11,12-tetrahydro-8H-[1,4]diazepino[5′,6′:4,5]thieno[3,2-f]quinolin-8-one]	18
C[C@@H]1CNc2c(sc3ccc4nc(-c5cnc(Cl)[nH]5)ccc4c23)C(=O)N1 [Example I-151, (R)-3-(2-chloro-1H-imidazol-5-yl)-10-methyl-9,10,11,12-tetrahydro-8H-[1,4]diazepino[5′,6′:4,5]thieno[3,2-f]quinolin-8-one]	23
C[C@@H]1CNc2c(sc3ccc4nc(-n5ccc(Cl)n5)ccc4c23)C(=O)N1 [Example I-165, (R)-3-(3-chloro-1H-pyrazol-1-yl)-10-methyl-9,10,11,12-tetrahydro-8H-[1,4]diazepino[5′,6′:4,5]thieno[3,2-f]quinolin-8-one]	81
C=C(CN1CCCC1)c1cc(-c2ccc3c(ccc4sc5c(c43)NC[C@@H](C)NC5=O)n2)ccn1 [Example I-116, (R)-10-methyl-3-(2-(3-(pyrrolidin-1-yl)prop-1-en-2-yl)pyridin-4-yl)-9,10,11,12-tetrahydro-8H-[1,4]diazepino[5′,6′:4,5]thieno[3,2-f]quinolin-8-one]	6
C=Cc1nc(Cl)c(Cl)n1-c1ccc2c(ccc3sc4c(c32)NC[C@@H](C)NC4=O)n1 [Example I-251, (R)-3-(4,5-dichloro-2-vinyl-1H-imidazol-1-yl)-10-methyl-9,10,11,12-tetrahydro-8H-[1,4]diazepino[5′,6′:4,5]thieno[3,2-f]quinolin-8-one]	192
C=C(c1cncc(-c2ccc3c(ccc4sc5c(c43)NC[C@@H](C)NC5=O)n2)n1)C(F)(F)F [Example I-225, (R)-10-methyl-3-(6-(3,3,3-trifluoroprop-1-en-2-yl)pyrazin-2-yl)-9,10,11,12-tetrahydro-8H-[1,4]diazepino[5′,6′:4,5]thieno[3,2-f]quinolin-8-one]	19
C#Cc1cc(-c2ccc3c(ccc4sc5c(c43)NC[C@@H](C)NC5=O)n2)c(OCCN2CCCC2)nn1 [Example I-120, (R)-3-(6-ethynyl-3-(2-(pyrrolidin-1-yl)ethoxy)pyridazin-4-yl)-10-methyl-9,10,11,12-tetrahydro-8H-[1,4]diazepino[5′,6′:4,5]thieno[3,2-f]quinolin-8-one]	45
C#Cc1cc(-c2ccc3c(ccc4sc5c(c43)NC[C@@H](C)NC5=O)n2)cnn1 [Example I-51, (R)-3-(6-ethynylpyridazin-4-yl)-10-methyl-9,10,11,12-tetrahydro-8H-[1,4]diazepino[5′,6′:4,5]thieno[3,2-f]quinolin-8-one]	3
C[C@@H]1CNc2c(sc3ccc4nc(-c5cc(Cl)nc(CO)c5)ccc4c23)C(=O)N1 [Example I-97, (R)-3-(2-chloro-6-(hydroxymethyl)pyridin-4-yl)-10-methyl-9,10,11,12-tetrahydro-8H-[1,4]diazepino[5′,6′:4,5]thieno[3,2-f]quinolin-8-one]	60
COc1nnc(/C=C/C(F)(F)F)cc1-c1ccc2c(ccc3sc4c(c32)NC[C@@H](C)NC4=O)n1 [Example I-200, (R,E)-3-(3-methoxy-6-(3,3,3-trifluoroprop-1-en-1-yl)pyridazin-4-yl)-10-methyl-9,10,11,12-tetrahydro-8H-[1,4]diazepino[5′,6′:4,5]thieno[3,2-f]quinolin-8-one]	1000

Second part, the compound after the results:

IC50 [nM]	Structure (SMILES)
1000	C=Cc1nc(C)n(-c2ccc3c(ccc4sc5c(c43)NC[C@@H](C)NC5=O)n2)n1 [Example I-261, (R)-10-methyl-3-(5-methyl-3-vinyl-1H-1,2,4-triazol-1-yl)-9,10,11,12-tetrahydro-8H-[1,4]diazepino[5′,6′:4,5]thieno[3,2-f]quinolin-8-one]
116	C[C@@H]1CNc2c(sc3ccc4nc(-c5cccc(Cl)n5)ccc4c23)C(=O)N1 [Example I-52, (R)-3-(6-chloropyridin-2-yl)-10-methyl-9,10,11,12-tetrahydro-8H-[1,4]diazepino[5′,6′:4,5]thieno[3,2-f]quinolin-8-one]
21	C=Cc1cc(-c2ccc3c(ccc4sc5c(c43)NCC(C)NC5=O)n2)cc(N2CCC3(CCC(=O)O3)CC2)n1 (racemic) [Example I-215, rac-(R)-8-(4-(10-methyl-8-oxo-9,10,11,12-tetrahydro-8H-[1,4]diazepino[5′,6′:4,5]thieno[3,2-f]quinolin-3-yl)-6-vinylpyridin-2-yl)-1-oxa-8-azaspiro[4.5]decan-2-one]
4	C=Cc1cc(-c2ccc3c(ccc4sc5c(c43)NC[C@@H](C)NC5=O)n2)nc(N2CCN(C)CC2)n1 [Example I-19, (R)-10-methyl-3-(2-(4-methylpiperazin-1-yl)-6-vinylpyrimidin-4-yl)-9,10,11,12-tetrahydro-8H-[1,4]diazepino[5′,6′:4,5]thieno[3,2-f]quinolin-8-one]
106	C=Cc1cc(-c2ccc3c(ccc4sc5c(c43)NC[C@@H](C)NC5=O)n2)c(F)c(CN2CCOCC2)n1 [Example I-198, (R)-3-(3-fluoro-2-(morpholinomethyl)-6-vinylpyridin-4-yl)-10-methyl-9,10,11,12-tetrahydro-8H-[1,4]diazepino[5′,6′:4,5]thieno[3,2-f]quinolin-8-one]
16	CCOCc1nc(Cl)cc(-c2ccc3c(ccc4sc5c(c43)NC[C@@H](C)NC5=O)n2)n1 [Example I-30, (R)-3-(6-chloro-2-(ethoxymethyl)pyrimidin-4-yl)-10-methyl-9,10,11,12-tetrahydro-8H-[1,4]diazepino[5′,6′:4,5]thieno[3,2-f]quinolin-8-one]
10	[2H]C([2H])([2H])C(O)c1cnc(C=C)cc1-c1ccc2c(ccc3sc4c(c32)NC[C@@H](C)NC4=O)n1 (stereo partly drawn) [Example I-243, (10R)-3-(5-(1-hydroxyethyl-2,2,2-d3)-2-vinylpyridin-4-yl)-10-methyl-9,10,11,12-tetrahydro-8H-[1,4]diazepino[5′,6′:4,5]thieno[3,2-f]quinolin-8-one]
5	C=Cc1cc(-c2ccc3c(ccc4sc5c(c43)NC[C@@H](C)NC5=O)n2)c(C)c(CN2CCOCC2)n1 [Example I-197, (R)-10-methyl-3-(3-methyl-2-(morpholinomethyl)-6-vinylpyridin-4-yl)-9,10,11,12-tetrahydro-8H-[1,4]diazepino[5′,6′:4,5]thieno[3,2-f]quinolin-8-one]
21	C=Cc1cncc(-c2ccc3c(ccc4sc5c(c43)NC[C@@H](C)NC5=O)n2)c1 [Example I-82, (R)-10-methyl-3-(5-vinylpyridin-3-yl)-9,10,11,12-tetrahydro-8H-[1,4]diazepino[5′,6′:4,5]thieno[3,2-f]quinolin-8-one]
5	C#Cc1cc(-c2ccc3c(ccc4sc5c(c43)NC[C@@H](C)NC5=O)n2)ncn1 [Example I-38, (R)-3-(6-ethynylpyrimidin-4-yl)-10-methyl-9,10,11,12-tetrahydro-8H-[1,4]diazepino[5′,6′:4,5]thieno[3,2-f]quinolin-8-one]
11	C=Cc1cc(-c2ccc3c(ccc4sc5c(c43)NCC(C)NC5=O)n2)cc(N2CC3CC2CO3)n1 (racemic) [Example I-216, rac-(10R)-3-(2-(2-oxa-5-azabicyclo[2.2.1]heptan-5-yl)-6-vinylpyridin-4-yl)-10-methyl-9,10,11,12-tetrahydro-8H-[1,4]diazepino[5′,6′:4,5]thieno[3,2-f]quinolin-8-one]
12	C/C=C\c1cc(-c2ccc3c(ccc4sc5c(c43)NC[C@@H](C)NC5=O)n2)nc(COCC)n1 [Example I-36, (R,Z)-3-(2-(ethoxymethyl)-6-(prop-1-en-1-yl)pyrimidin-4-yl)-10-methyl-9,10,11,12-tetrahydro-8H-[1,4]diazepino[5′,6′:4,5]thieno[3,2-f]quinolin-8-one]
213	CC#Cc1nccc(-c2ccc3c(ccc4sc5c(c43)NC[C@@H](C)NC5=O)n2)n1 [Example I-53, (R)-10-methyl-3-(2-(prop-1-yn-1-yl)pyrimidin-4-yl)-9,10,11,12-tetrahydro-8H-[1,4]diazepino[5′,6′:4,5]thieno[3,2-f]quinolin-8-one]
